Test results taken from US20230257396A1, “MACROCYCLES AND THEIR USE” (BLOSSOMHILL THERAPEUTICS, INC., priority 2020, published 2023).

Legend:
Assay in all cases: KINOMEscan kinase binding assay (Eurofins/DiscoveRx), % Ctrl
Conditions in all cases: 1 μM
kinases [1] = biological target: T1, kinases (Homo sapiens, UniProt P10721, L576P)
T1 construct: purchased Eurofins/DiscoveRx; host or cells: E. coli BL21-derived host (T7 phage display) for most kinases; HEK-293 for the rest
How it was run: (§1)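 Competition binding: DNA- or phage-tagged kinases (T7 phage in E. coli BL21, or HEK-293-expressed) with immobilized biotinylated ligand beads and test compound, 1 h at room temperature. Bead-bound kinase eluted and quantified by qPCR; % Ctrl = (compound − positive control)/(negative control − positive control) ×100 at a single compound concentration.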

kinases [2] = biological target: T2, kinases (Homo sapiens, UniProt P00533)
T2 construct: purchased Eurofins/DiscoveRx; host or cells: E. coli BL21-derived host (T7 phage display) for most kinases; HEK-293 for the rest
T2 sequence (P00533 25-1210): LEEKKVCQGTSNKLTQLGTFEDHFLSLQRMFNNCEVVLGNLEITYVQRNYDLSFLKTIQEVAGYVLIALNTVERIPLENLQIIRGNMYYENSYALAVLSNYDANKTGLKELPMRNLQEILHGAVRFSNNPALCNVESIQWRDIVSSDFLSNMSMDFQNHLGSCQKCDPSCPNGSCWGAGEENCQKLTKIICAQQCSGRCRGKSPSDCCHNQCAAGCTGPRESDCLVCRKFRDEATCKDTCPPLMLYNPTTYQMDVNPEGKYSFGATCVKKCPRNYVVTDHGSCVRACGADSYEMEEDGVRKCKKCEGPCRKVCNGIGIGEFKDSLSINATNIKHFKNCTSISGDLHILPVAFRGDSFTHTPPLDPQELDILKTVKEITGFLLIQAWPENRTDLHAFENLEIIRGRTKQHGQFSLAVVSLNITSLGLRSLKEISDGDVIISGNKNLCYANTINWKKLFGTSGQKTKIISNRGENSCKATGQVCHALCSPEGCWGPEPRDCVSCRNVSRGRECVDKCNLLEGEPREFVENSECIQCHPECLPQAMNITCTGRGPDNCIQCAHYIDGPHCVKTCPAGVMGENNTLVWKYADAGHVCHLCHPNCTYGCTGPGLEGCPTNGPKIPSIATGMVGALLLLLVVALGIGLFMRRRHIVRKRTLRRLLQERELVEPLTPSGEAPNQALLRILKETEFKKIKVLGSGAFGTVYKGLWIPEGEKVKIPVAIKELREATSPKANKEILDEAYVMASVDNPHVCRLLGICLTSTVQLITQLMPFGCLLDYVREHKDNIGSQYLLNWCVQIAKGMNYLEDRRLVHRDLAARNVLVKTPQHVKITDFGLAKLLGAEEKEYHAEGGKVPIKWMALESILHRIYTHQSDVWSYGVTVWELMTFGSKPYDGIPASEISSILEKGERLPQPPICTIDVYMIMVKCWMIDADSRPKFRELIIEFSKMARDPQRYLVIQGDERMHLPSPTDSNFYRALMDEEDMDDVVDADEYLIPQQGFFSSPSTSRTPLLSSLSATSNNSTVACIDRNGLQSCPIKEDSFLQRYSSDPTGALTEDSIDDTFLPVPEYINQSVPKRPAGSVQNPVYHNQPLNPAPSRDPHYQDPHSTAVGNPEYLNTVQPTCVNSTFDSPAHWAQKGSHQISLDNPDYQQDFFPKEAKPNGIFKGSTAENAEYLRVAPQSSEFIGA
How it was run: as §1

kinases [3] = tested on: kinases
How it was run: as §1

kinases [4] = biological target: T3, kinases (Homo sapiens, UniProt P00519, M351T)
T3 construct: purchased Eurofins/DiscoveRx; host or cells: E. coli BL21-derived host (T7 phage display) for most kinases; HEK-293 for the rest
How it was run: as §1

kinases [5] = biological target: T4, kinases (Homo sapiens, UniProt P07949)
T4 construct: purchased Eurofins/DiscoveRx; host or cells: E. coli BL21-derived host (T7 phage display) for most kinases; HEK-293 for the rest
T4 sequence (P07949 29-1114): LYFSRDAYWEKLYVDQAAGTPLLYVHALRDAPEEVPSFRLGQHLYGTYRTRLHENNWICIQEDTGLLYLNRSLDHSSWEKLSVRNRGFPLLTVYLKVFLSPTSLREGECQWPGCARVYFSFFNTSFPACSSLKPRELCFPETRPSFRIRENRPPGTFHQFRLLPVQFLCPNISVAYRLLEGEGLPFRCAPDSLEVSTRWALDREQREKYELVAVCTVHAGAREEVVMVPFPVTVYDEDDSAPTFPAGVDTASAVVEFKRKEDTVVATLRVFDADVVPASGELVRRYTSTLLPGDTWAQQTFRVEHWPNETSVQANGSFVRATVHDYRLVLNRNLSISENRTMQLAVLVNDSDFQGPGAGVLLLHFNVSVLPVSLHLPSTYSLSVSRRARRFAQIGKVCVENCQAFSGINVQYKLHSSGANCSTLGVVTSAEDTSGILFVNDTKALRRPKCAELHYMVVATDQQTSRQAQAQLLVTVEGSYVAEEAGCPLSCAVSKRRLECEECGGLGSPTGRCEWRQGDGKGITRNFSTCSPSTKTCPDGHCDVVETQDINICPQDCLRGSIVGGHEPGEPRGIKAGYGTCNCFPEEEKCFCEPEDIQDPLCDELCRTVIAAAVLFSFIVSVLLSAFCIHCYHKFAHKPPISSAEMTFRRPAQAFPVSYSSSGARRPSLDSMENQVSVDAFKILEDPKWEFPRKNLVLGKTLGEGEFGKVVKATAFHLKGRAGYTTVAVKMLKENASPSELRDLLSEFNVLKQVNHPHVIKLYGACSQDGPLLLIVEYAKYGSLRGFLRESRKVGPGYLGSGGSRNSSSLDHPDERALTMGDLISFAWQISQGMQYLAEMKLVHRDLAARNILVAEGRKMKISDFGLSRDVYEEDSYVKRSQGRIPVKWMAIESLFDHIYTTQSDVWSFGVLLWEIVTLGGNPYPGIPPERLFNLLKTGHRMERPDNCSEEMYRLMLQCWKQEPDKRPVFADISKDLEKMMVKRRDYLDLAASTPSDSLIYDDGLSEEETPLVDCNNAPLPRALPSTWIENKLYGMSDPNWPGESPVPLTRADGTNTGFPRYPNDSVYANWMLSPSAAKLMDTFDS
How it was run: as §1

kinases [6] = biological target: T5, kinases (Homo sapiens, UniProt P07949, M918T)
T5 construct: purchased Eurofins/DiscoveRx; host or cells: E. coli BL21-derived host (T7 phage display) for most kinases; HEK-293 for the rest
T5 sequence (P07949 29-1114 M918T): as the sequence (P07949 29-1114) above, with M890T counted along it
How it was run: as §1

kinases [7] = biological target: T6, kinases (Homo sapiens, UniProt P36888, D835H)
T6 construct: purchased Eurofins/DiscoveRx; host or cells: E. coli BL21-derived host (T7 phage display) for most kinases; HEK-293 for the rest
T6 sequence (P36888 27-993 D835H): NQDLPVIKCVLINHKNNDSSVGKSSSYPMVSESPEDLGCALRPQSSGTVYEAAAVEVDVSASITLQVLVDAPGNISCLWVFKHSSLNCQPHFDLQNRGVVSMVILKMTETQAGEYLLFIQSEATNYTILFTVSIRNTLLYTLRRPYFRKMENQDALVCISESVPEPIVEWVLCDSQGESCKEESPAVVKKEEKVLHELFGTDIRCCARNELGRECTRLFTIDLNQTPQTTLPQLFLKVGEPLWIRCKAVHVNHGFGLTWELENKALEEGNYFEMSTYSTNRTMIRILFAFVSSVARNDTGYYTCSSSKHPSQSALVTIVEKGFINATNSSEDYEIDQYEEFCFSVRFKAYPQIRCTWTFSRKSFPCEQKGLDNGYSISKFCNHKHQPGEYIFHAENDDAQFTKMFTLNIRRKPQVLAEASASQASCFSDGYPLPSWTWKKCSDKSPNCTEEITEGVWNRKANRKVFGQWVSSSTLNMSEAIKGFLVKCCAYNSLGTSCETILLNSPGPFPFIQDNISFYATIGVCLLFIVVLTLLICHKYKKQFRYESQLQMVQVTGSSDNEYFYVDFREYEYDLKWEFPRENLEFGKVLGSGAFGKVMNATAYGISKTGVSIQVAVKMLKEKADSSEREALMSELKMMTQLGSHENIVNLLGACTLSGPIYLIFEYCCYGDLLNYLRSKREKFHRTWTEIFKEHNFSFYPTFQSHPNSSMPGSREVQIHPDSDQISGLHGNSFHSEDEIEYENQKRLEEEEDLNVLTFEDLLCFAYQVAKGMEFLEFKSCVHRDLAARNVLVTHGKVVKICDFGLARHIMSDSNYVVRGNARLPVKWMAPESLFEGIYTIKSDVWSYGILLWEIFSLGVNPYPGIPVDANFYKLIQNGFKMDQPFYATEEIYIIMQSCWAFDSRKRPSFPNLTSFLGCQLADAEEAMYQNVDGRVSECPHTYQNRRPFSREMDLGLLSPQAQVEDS
How it was run: as §1

kinases [8] = biological target: T7, kinases (Homo sapiens, UniProt P10721, A829P)
T7 construct: purchased Eurofins/DiscoveRx; host or cells: E. coli BL21-derived host (T7 phage display) for most kinases; HEK-293 for the rest
T7 sequence (P10721 26-976 A829P): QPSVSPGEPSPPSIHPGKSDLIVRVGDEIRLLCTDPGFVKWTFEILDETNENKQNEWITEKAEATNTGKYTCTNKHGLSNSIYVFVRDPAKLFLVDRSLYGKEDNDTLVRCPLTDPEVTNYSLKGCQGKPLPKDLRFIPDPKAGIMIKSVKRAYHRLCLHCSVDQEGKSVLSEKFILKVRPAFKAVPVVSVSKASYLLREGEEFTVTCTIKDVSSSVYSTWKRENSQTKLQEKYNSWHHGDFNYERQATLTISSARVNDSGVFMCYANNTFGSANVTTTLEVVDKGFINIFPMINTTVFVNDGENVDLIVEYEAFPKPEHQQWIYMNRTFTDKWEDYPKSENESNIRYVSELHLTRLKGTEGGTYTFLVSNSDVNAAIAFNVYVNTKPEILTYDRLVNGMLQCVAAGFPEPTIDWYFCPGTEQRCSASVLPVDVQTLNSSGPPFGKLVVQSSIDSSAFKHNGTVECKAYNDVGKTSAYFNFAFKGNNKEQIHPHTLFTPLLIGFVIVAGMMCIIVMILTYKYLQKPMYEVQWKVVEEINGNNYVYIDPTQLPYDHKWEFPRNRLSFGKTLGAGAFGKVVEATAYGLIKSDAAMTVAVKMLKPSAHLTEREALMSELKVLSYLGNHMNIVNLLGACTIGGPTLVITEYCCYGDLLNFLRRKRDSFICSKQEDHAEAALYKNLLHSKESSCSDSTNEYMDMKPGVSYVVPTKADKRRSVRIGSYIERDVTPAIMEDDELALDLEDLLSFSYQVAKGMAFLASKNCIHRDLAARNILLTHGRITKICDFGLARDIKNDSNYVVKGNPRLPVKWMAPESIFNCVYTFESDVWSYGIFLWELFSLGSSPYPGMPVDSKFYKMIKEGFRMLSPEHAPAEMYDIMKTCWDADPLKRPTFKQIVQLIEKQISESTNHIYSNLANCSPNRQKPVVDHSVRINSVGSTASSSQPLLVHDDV
How it was run: as §1

kinases [9] = biological target: T8, kinases (Homo sapiens, UniProt P42684)
T8 construct: purchased Eurofins/DiscoveRx; host or cells: E. coli BL21-derived host (T7 phage display) for most kinases; HEK-293 for the rest
T8 sequence (P42684 whole entry): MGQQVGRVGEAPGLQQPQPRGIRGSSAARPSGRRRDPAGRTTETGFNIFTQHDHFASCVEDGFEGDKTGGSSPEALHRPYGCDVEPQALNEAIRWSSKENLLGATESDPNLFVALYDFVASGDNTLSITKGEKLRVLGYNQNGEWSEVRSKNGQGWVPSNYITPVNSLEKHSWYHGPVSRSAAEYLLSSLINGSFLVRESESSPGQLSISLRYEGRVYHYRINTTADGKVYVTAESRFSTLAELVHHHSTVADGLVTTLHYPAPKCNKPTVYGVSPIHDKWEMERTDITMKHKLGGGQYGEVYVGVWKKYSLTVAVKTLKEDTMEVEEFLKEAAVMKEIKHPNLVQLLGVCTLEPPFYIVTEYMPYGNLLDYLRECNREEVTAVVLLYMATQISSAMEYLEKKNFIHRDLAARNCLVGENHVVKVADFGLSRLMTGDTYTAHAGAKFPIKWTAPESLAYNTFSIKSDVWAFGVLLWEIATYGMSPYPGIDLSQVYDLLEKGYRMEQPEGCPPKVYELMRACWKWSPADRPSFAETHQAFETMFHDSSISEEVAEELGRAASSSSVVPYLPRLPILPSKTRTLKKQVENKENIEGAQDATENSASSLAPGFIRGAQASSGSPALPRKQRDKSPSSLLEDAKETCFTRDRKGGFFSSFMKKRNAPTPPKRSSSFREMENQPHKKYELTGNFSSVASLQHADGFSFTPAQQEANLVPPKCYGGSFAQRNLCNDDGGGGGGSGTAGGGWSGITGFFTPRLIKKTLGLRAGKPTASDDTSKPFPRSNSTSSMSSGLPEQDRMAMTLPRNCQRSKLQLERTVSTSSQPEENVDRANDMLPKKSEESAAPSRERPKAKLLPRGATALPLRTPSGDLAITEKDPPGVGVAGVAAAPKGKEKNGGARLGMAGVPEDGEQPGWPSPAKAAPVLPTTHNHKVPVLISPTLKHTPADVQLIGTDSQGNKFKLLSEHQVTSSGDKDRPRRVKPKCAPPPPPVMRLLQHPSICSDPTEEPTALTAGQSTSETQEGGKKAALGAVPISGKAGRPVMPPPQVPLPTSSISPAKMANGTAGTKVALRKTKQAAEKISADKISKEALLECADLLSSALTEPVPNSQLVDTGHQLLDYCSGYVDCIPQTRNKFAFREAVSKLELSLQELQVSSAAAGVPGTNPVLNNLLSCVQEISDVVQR
How it was run: as §1

kinases [10] = biological target: T9, kinases (Homo sapiens, UniProt P10721, V559D)
T9 construct: purchased Eurofins/DiscoveRx; host or cells: E. coli BL21-derived host (T7 phage display) for most kinases; HEK-293 for the rest
T9 sequence (P10721 26-976 V559D): as the sequence (P10721 26-976 A829P) above, with V534D, P804A counted along it
How it was run: as §1

[11] = target EGFR(L747-E749del, A750P)
[12] = target EGFR(L747-S752del, P753S)
[13] = target EGFR(L747-T751del, Sins)
[14] = target ABL1(M351T)-phosphorylated

T1 sequence (P10721 26-976 L576P): as the sequence (P10721 26-976 A829P) above, with L551P, P804A counted along it

| Compound | % Ctrl, KIT(L576P) (kinases [1]; target KIT(L576P)) | % Ctrl, EGFR (kinases [2]; target EGFR) | % Ctrl, EGFR(L747-E749del, A750P) (kinases [3]; [11]) | % Ctrl, EGFR(L747-S752del, P753S) (kinases [3]; [12]) | % Ctrl, EGFR(L747-T751del, Sins) (kinases [3]; [13]) | % Ctrl, FLT3(ITD) (kinases [3]; target FLT3(ITD)) | % Ctrl, FLT3(ITD, D835V) (kinases [3]; target FLT3(ITD, D835V)) | % Ctrl, FLT3(ITD, F691L) (kinases [3]; target FLT3(ITD, F691L)) | % Ctrl, ABL1(M351T)-phosphorylated (kinases [4]; [14]) | % Ctrl, RET (kinases [5]; target RET) | % Ctrl, RET(M918T) (kinases [6]; target RET(M918T)) | % Ctrl, FLT3(D835H) (kinases [7]; target FLT3(D835H)) | % Ctrl, KIT(A829P) (kinases [8]; target KIT(A829P)) | % Ctrl, ABL2 (kinases [9]; target ABL2) | % Ctrl, KIT(V559D) (kinases [10]; target KIT(V559D)) | other results |
| --- | --- | --- | --- | --- | --- | --- | --- | --- | --- | --- | --- | --- | --- | --- | --- | --- |
| Cc1cc2c([nH]1)/C=C1\C(=O)Nc3cc(Cl)c(cc31)OCCO[C@@H](C(=O)N(C)C)CN(C)C2=O [Ex. 137, [7R,16a(17)Z]-19-chloro-N,N,2,5-tetramethyl-4,16-dioxo-4,5,6,7,9,10,15,16-octahydro-1H-12,14-(ethanediylidene)dipyrrolo[3,2-i:3′,4′-l][1,4,7]dioxazacyclopentadecine-7-carboxamide] | – | – | – | – | – | – | – | – | – | – | – | – | – | – | – | % Ctrl, KIT(L576P) (kinases [1]; KIT(L576P)): 39 % Ctrl; % Ctrl, EGFR (kinases [2]; EGFR): 100 % Ctrl; % Ctrl, EGFR(L747-E749del, A750P) (kinases [3]; EGFR(L747-E749del, A750P)): 100 % Ctrl; % Ctrl, EGFR(L747-S752del, P753S) (kinases [3]; EGFR(L747-S752del, P753S)): 100 % Ctrl; % Ctrl, EGFR(L747-T751del, Sins) (kinases [3]; EGFR(L747-T751del, Sins)): 100 % Ctrl; % Ctrl, FLT3(ITD) (kinases [3]; FLT3(ITD)): 44 % Ctrl; % Ctrl, FLT3(ITD, D835V) (kinases [3]; FLT3(ITD, D835V)): 9.1 % Ctrl; % Ctrl, FLT3(ITD, F691L) (kinases [3]; FLT3(ITD, F691L)): 29 % Ctrl; % Ctrl, ABL1(M351T)-phosphorylated (kinases [4]; ABL1(M351T)-phosphorylated): 51 % Ctrl; % Ctrl, RET (kinases [5]; RET): 8 % Ctrl; % Ctrl, RET(M918T) (kinases [6]; RET(M918T)): 6.4 % Ctrl; % Ctrl, FLT3(D835H) (kinases [7]; FLT3(D835H)): 53 % Ctrl; % Ctrl, KIT(A829P) (kinases [8]; KIT(A829P)): 75 % Ctrl; % Ctrl, ABL2 (kinases [9]; ABL2): 99 % Ctrl; % Ctrl, KIT(V559D) (kinases [10]; KIT(V559D)): 75 % Ctrl |
| Cc1cc2c([nH]1)/C=C1\C(=O)Nc3cc(Cl)c(cc31)OCCO[C@@H](C(=O)N1CCN(C)CC1)CN(C)C2=O [Ex. 138, [7R,16a(17)Z]-19-chloro-2,5-dimethyl-7-(4-methylpipearazine-1-carbonyl)-6,7,9,10-tetrahydro-1H-12,14-(ethanediylidene)dipyrrolo[3,2-i:3′,4′-l][1,4,7]dioxazacyclopentadecine-4,16(5H,15H)-dione] | 69 % Ctrl | 76 % Ctrl | 100 % Ctrl | 61 % Ctrl | 96 % Ctrl | 73 % Ctrl | 24 % Ctrl | 49 % Ctrl | 71 % Ctrl | 63 % Ctrl | 72 % Ctrl | 73 % Ctrl | 100 % Ctrl | 98 % Ctrl | 97 % Ctrl | – |
| Cc1cc2c([nH]1)/C=C1\C(=O)Nc3ccc(cc31)-c1c(noc1C)CNCCN(C)C2=O [Ex. 139, [3a(4)Z]-6,9,16-trimethyl-10,11,12,13-tetrahydro-2H-1,17-(ethanediylidene)[1,2]oxazolo[4,3-m]dipyrrolo[3,2-f:3′,4′-i][1,4]diazacyclopentadecine-3,8(5H,9H)-dione] | 84 % Ctrl | 94 % Ctrl | 71 % Ctrl | 77 % Ctrl | 81 % Ctrl | 8.1 % Ctrl | 1.2 % Ctrl | 0.9 % Ctrl | 7.3 % Ctrl | 42 % Ctrl | 41 % Ctrl | 14 % Ctrl | 74 % Ctrl | 70 % Ctrl | 91 % Ctrl | – |
| CN1CCOCCOc2cc3c(cc2Cl)NC(=O)/C3=C\c2[nH]ccc2C1=O [Ex. 143, [16a(17)Z]-19-chloro-2,5-dimethyl-6,7,9,10-tetrahydro-1H-12,14-(ethanediylidene)dipyrrolo[3,2-i:3′,4′-l][1,4,7]oxathiazacyclopentadecine-4,16(5H,15H)-dione] | 0 % Ctrl | 100 % Ctrl | 90 % Ctrl | 89 % Ctrl | 96 % Ctrl | 2.5 % Ctrl | 0.6 % Ctrl | 1 % Ctrl | 13 % Ctrl | 0.6 % Ctrl | 0.7 % Ctrl | 0.8 % Ctrl | 51 % Ctrl | 40 % Ctrl | 5.4 % Ctrl | – |
| Cc1cc2c([nH]1)/C=C1\C(=O)Nc3ccc(cc31)-c1c(C)nn(C)c1COCCN(C)C2=O [Ex. 146, [3a(4)Z]-6,9,14,16-tetramethyl-10,11,13,14-tetrahydro-2H-1,17-(ethanediylidene)pyrazolo[4,3-m]dipyrrolo[3,2-f:3′,4′-i][1,4]oxazacyclopentadecine-3,8(5H,9H)-dione] | 90 % Ctrl | 51 % Ctrl | 38 % Ctrl | 60 % Ctrl | 77 % Ctrl | 4.7 % Ctrl | 0.3 % Ctrl | 3.2 % Ctrl | 67 % Ctrl | 45 % Ctrl | 27 % Ctrl | 5.7 % Ctrl | 92 % Ctrl | 83 % Ctrl | 75 % Ctrl | – |
| Cc1nn(C)c2c1-c1ccc3c(c1)/C(=C/c1[nH]ccc1C(=O)N(C)CCCO2)C(=O)N3 [Ex. 150, [3a(4)Z]-9,14,16-trimethyl-10,11,13,14-tetrahydro-2H-1,17-(ethanediylidene)pyrazolo[4,3-m]dipyrrolo[3,2-f:3′,4′-i][1,4]oxazacyclopentadecine-3,8(5H,9H)-dione] | 94 % Ctrl | 61 % Ctrl | 94 % Ctrl | 100 % Ctrl | 94 % Ctrl | 72 % Ctrl | 35 % Ctrl | 59 % Ctrl | 94 % Ctrl | 93 % Ctrl | 90 % Ctrl | 62 % Ctrl | 96 % Ctrl | 95 % Ctrl | 88 % Ctrl | – |
| CN1CCSCCOc2cc3c(cc2Cl)NC(=O)/C3=C\c2[nH]ccc2C1=O [Ex. 153] | 0.1 % Ctrl | 61 % Ctrl | 85 % Ctrl | 57 % Ctrl | 38 % Ctrl | 0.5 % Ctrl | 0.5 % Ctrl | 0.5 % Ctrl | 9.5 % Ctrl | 2.4 % Ctrl | 1 % Ctrl | 0.3 % Ctrl | 43 % Ctrl | 35 % Ctrl | 0.3 % Ctrl | – |
